Data from patent US11129827B2 (priority 2017, dated 2021).
Read-outs that look alike come from different tables or passages of the source.

How the values were obtained:
[1] = biological target: MAGL (Homo sapiens (Human), UniProt Q99685); assay: biochemical; details: for inhibition at 1 µM: read-out: MAGL (human) % inh. 1 μM; for IC50: read-out: MAGL (human) IC50
[2] = biological target: MAGL (Mus musculus (Mouse), UniProt O35678); assay: in vivo; details: po, read-out: MAGL (mouse) % inh. 5 mg/kg
[3] = biological target: FAAH (Mus musculus (Mouse), UniProt O08914); assay: in vivo; details: po, read-out: FAAH (mouse) % inh. 5 mg/kg
[4] = biological target: FAAH (Homo sapiens (Human), UniProt O00519); assay: biochemical; details: for inhibition at 1 µM: read-out: FAAH (human) % inh. 1 μM

| Structure (SMILES) | inhibition at 1 µM [1] [%] | IC50 [1] [nM] | inhibition at 5 mg/kg [2] [%] | inhibition at 5 mg/kg [3] [%] | IC50 [4] [nM] | inhibition at 1 µM [4] [%] | IC50 ([4]; read-out: FAAH (human) IC50) [nM] |
| --- | --- | --- | --- | --- | --- | --- | --- |
| CC(C)Oc1cc(CN2CCN(C(=O)Oc3cncc(NS(C)(=O)=O)c3)CC2)ccc1Cl [Example 15, 5-(Methylsulfonamido)pyridin-3-yl 4-(4-chloro-3-isopropoxybenzyl)piperazine-1-carboxylate] | > 75 | 100 to 1000 | 0 to 25 | 0 to 25 | < 100 | > 75 |  |
| C[C@@H]1CN(Cc2cccc(OC(F)(F)F)c2)CCN1C(=O)Oc1cncc(C(N)=O)c1 [Example 74, (R)-5-Carbamoylpyridin-3-yl 2-methyl-4-(3-(trifluoromethoxy)benzyl)piperazine-1-carboxylate] | 25 to 50 | 100 to 1000 | > 75 | > 75 | < 100 | > 75 |  |
| NC(=O)c1cncc(OC(=O)N2CCC3(CCN(Cc4ccc(Cl)c(Cl)c4)C3)CC2)c1 [Example 36, 5-Carbamoylpyridin-3-yl 2-(3,4-dichlorobenzyl)-2,8-diazaspiro[4.5]decane-8-carboxylate] | > 75 | < 100 | 25 to 50 | > 75 |  | > 75 | < 100 |
| NC(=O)c1cncc(OC(=O)N2CCC3(CCN(Cc4cc(Cl)ccc4C(F)(F)F)C3)CC2)c1 [Example 4, 5-Carbamoylpyridin-3-yl 2-(5-chloro-2-(trifluoromethyl)benzyl)-2,8-diazaspiro[4.5]decane-8-carboxylate] | > 75 | < 100 | > 75 | > 75 |  | > 75 | < 100 |
| O=C(Oc1cncc(C(F)(F)F)c1)N1CCC2(CC1)CN(Cc1cccc(Oc3cncc(C(F)(F)F)c3)c1)C2 [Example 38, 5-(Trifluoromethyl)pyridin-3-yl 2-(3-((5-(trifluoromethyl)pyridin-3-yl)oxy)benzyl)-2,7-diazaspiro[3.5]nonane-7-carboxylate] | > 75 | < 100 | 0 to 25 | > 75 |  | > 75 | < 100 |
